Experimental data published in the CheMixHub ionic liquid set.
± gives the uncertainty stated by the source.

Assay: xn = mol fraction of the nth substance listed

**Q.** What does the source list for `CCCCCCCCn1cc[n+](C)c1.[Cl-]` + O?
**A.** viscosity (278.15 K, 100 kPa, x1 = 0.0001): 1.534 ± 0.011 mPa·s; viscosity (278.15 K, 100 kPa, x1 = 0.0001668): 1.543 ± 0.011 mPa·s; viscosity (278.15 K, 100 kPa, x1 = 0.0002526): 1.559 ± 0.012 mPa·s; viscosity (278.15 K, 100 kPa, x1 = 0.0003767): 1.575 ± 0.012 mPa·s; viscosity (278.15 K, 100 kPa, x1 = 0.0005495): 1.603 ± 0.012 mPa·s; viscosity (278.15 K, 100 kPa, x1 = 0.000764): 1.642 ± 0.012 mPa·s; viscosity (278.15 K, 100 kPa, x1 = 0.0009813): 1.683 ± 0.013 mPa·s; viscosity (283.15 K, 100 kPa, x1 = 0.0001): 1.316 ± 0.01 mPa·s; viscosity (283.15 K, 100 kPa, x1 = 0.0001668): 1.322 ± 0.01 mPa·s; viscosity (283.15 K, 100 kPa, x1 = 0.0002526): 1.33 ± 0.01 mPa·s; viscosity (283.15 K, 100 kPa, x1 = 0.0003767): 1.346 ± 0.01 mPa·s; viscosity (283.15 K, 100 kPa, x1 = 0.0005495): 1.368 ± 0.01 mPa·s; viscosity (283.15 K, 100 kPa, x1 = 0.000764): 1.404 ± 0.011 mPa·s; viscosity (283.15 K, 100 kPa, x1 = 0.0009813): 1.439 ± 0.011 mPa·s; viscosity (288.15 K, 100 kPa, x1 = 0.0001): 1.151 ± 0.009 mPa·s; viscosity (288.15 K, 100 kPa, x1 = 0.0001668): 1.165 ± 0.009 mPa·s; viscosity (288.15 K, 100 kPa, x1 = 0.0002526): 1.182 ± 0.009 mPa·s; viscosity (288.15 K, 100 kPa, x1 = 0.0003767): 1.206 ± 0.009 mPa·s; viscosity (288.15 K, 100 kPa, x1 = 0.0005495): 1.233 ± 0.009 mPa·s; viscosity (288.15 K, 100 kPa, x1 = 0.000764): 1.27 ± 0.01 mPa·s; viscosity (288.15 K, 100 kPa, x1 = 0.0009813): 1.304 ± 0.01 mPa·s; viscosity (293.15 K, 100 kPa, x1 = 0.0001): 1.01 ± 0.008 mPa·s; viscosity (293.15 K, 100 kPa, x1 = 0.0001668): 1.014 ± 0.008 mPa·s; viscosity (293.15 K, 100 kPa, x1 = 0.0002526): 1.021 ± 0.008 mPa·s; viscosity (293.15 K, 100 kPa, x1 = 0.0003767): 1.031 ± 0.008 mPa·s; viscosity (293.15 K, 100 kPa, x1 = 0.0005495): 1.046 ± 0.008 mPa·s; viscosity (293.15 K, 100 kPa, x1 = 0.000764): 1.068 ± 0.008 mPa·s; viscosity (293.15 K, 100 kPa, x1 = 0.0009813): 1.09 ± 0.008 mPa·s; electrical conductivity (298.15 K, 100 kPa, frequency 0.001 MHz, x1 = 0.001709): 0.532 ± 0.0084 S/m; electrical conductivity (298.15 K, 100 kPa, frequency 0.001 MHz, x1 = 0.002014): 0.588 ± 0.0091 S/m; electrical conductivity (298.15 K, 100 kPa, frequency 0.001 MHz, x1 = 0.002301): 0.647 ± 0.0096 S/m; electrical conductivity (298.15 K, 100 kPa, frequency 0.001 MHz, x1 = 0.00266): 0.716 ± 0.01 S/m; electrical conductivity (298.15 K, 100 kPa, frequency 0.001 MHz, x1 = 0.002911): 0.765 ± 0.01 S/m; electrical conductivity (298.15 K, 100 kPa, frequency 0.001 MHz, x1 = 0.003215): 0.824 ± 0.011 S/m; electrical conductivity (298.15 K, 100 kPa, frequency 0.001 MHz, x1 = 0.003519): 0.889 ± 0.011 S/m; electrical conductivity (298.15 K, 100 kPa, frequency 0.001 MHz, x1 = 0.003824): 0.941 ± 0.011 S/m; electrical conductivity (298.15 K, 100 kPa, frequency 0.001 MHz, x1 = 0.004074): 0.978 ± 0.011 S/m; electrical conductivity (298.15 K, 100 kPa, frequency 0.001 MHz, x1 = 0.004467): 1.02 ± 0.011 S/m; electrical conductivity (298.15 K, 100 kPa, frequency 0.001 MHz, x1 = 0.004967): 1.08 ± 0.011 S/m; electrical conductivity (298.15 K, 100 kPa, frequency 0.001 MHz, x1 = 0.005947): 1.16 ± 0.012 S/m; viscosity (298.15 K, 100 kPa, x1 = 0.0001): 0.898 ± 0.007 mPa·s; viscosity (298.15 K, 100 kPa, x1 = 0.0001668): 0.901 ± 0.007 mPa·s; viscosity (298.15 K, 100 kPa, x1 = 0.0002526): 0.906 ± 0.007 mPa·s; viscosity (298.15 K, 100 kPa, x1 = 0.0003767): 0.916 ± 0.007 mPa·s; viscosity (298.15 K, 100 kPa, x1 = 0.0005495): 0.929 ± 0.007 mPa·s; viscosity (298.15 K, 100 kPa, x1 = 0.000764): 0.947 ± 0.007 mPa·s; viscosity (298.15 K, 100 kPa, x1 = 0.0009813): 0.965 ± 0.007 mPa·s; electrical conductivity (298.15 K, 101.3 kPa, x1 = 4.96e-06): 0.00314 ± 3e-05 S/m; electrical conductivity (298.15 K, 101.3 kPa, x1 = 7.53e-06): 0.00467 ± 5e-05 S/m; electrical conductivity (298.15 K, 101.3 kPa, x1 = 1.002e-05): 0.00613 ± 6e-05 S/m; electrical conductivity (298.15 K, 101.3 kPa, x1 = 1.247e-05): 0.00756 ± 8e-05 S/m; electrical conductivity (298.15 K, 101.3 kPa, x1 = 1.481e-05): 0.00893 ± 9e-05 S/m; electrical conductivity (298.15 K, 101.3 kPa, x1 = 1.716e-05): 0.01029 ± 0.0001 S/m; electrical conductivity (298.15 K, 101.3 kPa, x1 = 1.95e-05): 0.0116 ± 0.00012 S/m; electrical conductivity (298.15 K, 101.3 kPa, x1 = 2.177e-05): 0.0129 ± 0.00013 S/m; electrical conductivity (298.15 K, 101.3 kPa, x1 = 2.424e-05): 0.01436 ± 0.00014 S/m; electrical conductivity (298.15 K, 101.3 kPa, x1 = 2.667e-05): 0.0158 ± 0.00016 S/m; electrical conductivity (298.15 K, 101.3 kPa, x1 = 2.939e-05): 0.0173 ± 0.00017 S/m; viscosity (303.15 K, 100 kPa, x1 = 0.0001): 0.804 ± 0.006 mPa·s; viscosity (303.15 K, 100 kPa, x1 = 0.0001668): 0.807 ± 0.006 mPa·s; viscosity (303.15 K, 100 kPa, x1 = 0.0002526): 0.812 ± 0.006 mPa·s; viscosity (303.15 K, 100 kPa, x1 = 0.0003767): 0.819 ± 0.006 mPa·s; viscosity (303.15 K, 100 kPa, x1 = 0.0005495): 0.83 ± 0.006 mPa·s; viscosity (303.15 K, 100 kPa, x1 = 0.000764): 0.845 ± 0.007 mPa·s; viscosity (303.15 K, 100 kPa, x1 = 0.0009813): 0.861 ± 0.007 mPa·s; viscosity (308.15 K, 100 kPa, x1 = 0.0001): 0.725 ± 0.006 mPa·s; viscosity (308.15 K, 100 kPa, x1 = 0.0001668): 0.727 ± 0.006 mPa·s; viscosity (308.15 K, 100 kPa, x1 = 0.0002526): 0.732 ± 0.006 mPa·s; viscosity (308.15 K, 100 kPa, x1 = 0.0003767): 0.737 ± 0.006 mPa·s; viscosity (308.15 K, 100 kPa, x1 = 0.0005495): 0.747 ± 0.006 mPa·s; viscosity (308.15 K, 100 kPa, x1 = 0.000764): 0.761 ± 0.006 mPa·s; viscosity (308.15 K, 100 kPa, x1 = 0.0009813): 0.775 ± 0.006 mPa·s; viscosity (313.15 K, 100 kPa, x1 = 0.0001): 0.658 ± 0.005 mPa·s; viscosity (313.15 K, 100 kPa, x1 = 0.0002526): 0.665 ± 0.005 mPa·s; viscosity (313.15 K, 100 kPa, x1 = 0.0003767): 0.669 ± 0.005 mPa·s; viscosity (313.15 K, 100 kPa, x1 = 0.0005495): 0.677 ± 0.005 mPa·s; viscosity (313.15 K, 100 kPa, x1 = 0.000764): 0.689 ± 0.005 mPa·s; viscosity (313.15 K, 100 kPa, x1 = 0.0009813): 0.701 ± 0.006 mPa·s
